In patent US8846704B2, “Thiopyrimidine-based compounds and uses thereof” (YM Biosciences Austraila Pty Ltd, priority 2007, dated 2014):

Experiments:
[1] = biological target: T1, human JAK2 (Homo sapiens, UniProt O60674); test: Alphascreen tyrosine kinase enzyme assay, JAK2 kinase domain; type: biochemical; conditions: read-out: JAK2 IC50_nM
T1 construct: The kinase domain of human JAK2 was amplified; GST (N); made in house; host or cells: Sf9 insect cells (baculovirus)
In short: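 JAK2 kinase domain expressed in baculovirus/Sf9 and glutathione-affinity purified. Compounds (final […]) pre-incubated 20 min with enzyme in 10 mM HEPES pH 7.5, MgCl2, NaCl, vanadate, 0.1% Tween 20.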

[2] = biological target: T2, human JAK3 (Homo sapiens, UniProt P52333); test: Alphascreen tyrosine kinase enzyme assay, JAK3 kinase domain; type: biochemical; conditions: read-out: JAK3 IC50_nM
T2 construct: The kinase domain of human JAK3 was amplified; GST (N); made in house; host or cells: Sf9 insect cells (baculovirus)
T2 sequence (P52333 822-1111 limits assumed): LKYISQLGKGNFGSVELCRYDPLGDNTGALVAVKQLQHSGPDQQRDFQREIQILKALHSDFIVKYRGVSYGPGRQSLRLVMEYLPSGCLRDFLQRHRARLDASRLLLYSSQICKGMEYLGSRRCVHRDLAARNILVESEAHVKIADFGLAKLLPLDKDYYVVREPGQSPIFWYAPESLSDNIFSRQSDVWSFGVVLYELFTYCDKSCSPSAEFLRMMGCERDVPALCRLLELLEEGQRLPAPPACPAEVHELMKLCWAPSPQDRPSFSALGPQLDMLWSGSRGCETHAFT
In short: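 GST-affinity-purified human JAK3 kinase domain (baculovirus/Sf9) was pre-incubated 20 min with compound ([…]) in HEPES pH 7.5 buffer with MgCl2, vanadate and Tween 20. Biotinylated peptide substrate ([…]) and ATP were then added; phosphotyrosine was detected by AlphaScreen PY100 acceptor and streptavidin donor beads after 2–3 h.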

[3] = biological target: T3, BaF3 TELJAK2 cells (BafT_J2) (Homo sapiens, UniProt O60674); test: Cellular screening, BaF3 TEL:JAK2 cells, Alamar Blue; type: cell-based; conditions: 40 hr, read-out: BafT_J2 IC50_nM
T3 construct: fused on or other part: TEL (ETV6) N-terminal part, coding nucleotides 1-487, serves as the oligomerising partner; It is fused through a Sal I site to the JAK2 kinase domain and expressed from pTRE2 in BaF3 cells bearing pTET-off; P41212 (Transcription factor ETV6)
T3 sequence (O60674 whole entry, change not shown, the tested form may be a part): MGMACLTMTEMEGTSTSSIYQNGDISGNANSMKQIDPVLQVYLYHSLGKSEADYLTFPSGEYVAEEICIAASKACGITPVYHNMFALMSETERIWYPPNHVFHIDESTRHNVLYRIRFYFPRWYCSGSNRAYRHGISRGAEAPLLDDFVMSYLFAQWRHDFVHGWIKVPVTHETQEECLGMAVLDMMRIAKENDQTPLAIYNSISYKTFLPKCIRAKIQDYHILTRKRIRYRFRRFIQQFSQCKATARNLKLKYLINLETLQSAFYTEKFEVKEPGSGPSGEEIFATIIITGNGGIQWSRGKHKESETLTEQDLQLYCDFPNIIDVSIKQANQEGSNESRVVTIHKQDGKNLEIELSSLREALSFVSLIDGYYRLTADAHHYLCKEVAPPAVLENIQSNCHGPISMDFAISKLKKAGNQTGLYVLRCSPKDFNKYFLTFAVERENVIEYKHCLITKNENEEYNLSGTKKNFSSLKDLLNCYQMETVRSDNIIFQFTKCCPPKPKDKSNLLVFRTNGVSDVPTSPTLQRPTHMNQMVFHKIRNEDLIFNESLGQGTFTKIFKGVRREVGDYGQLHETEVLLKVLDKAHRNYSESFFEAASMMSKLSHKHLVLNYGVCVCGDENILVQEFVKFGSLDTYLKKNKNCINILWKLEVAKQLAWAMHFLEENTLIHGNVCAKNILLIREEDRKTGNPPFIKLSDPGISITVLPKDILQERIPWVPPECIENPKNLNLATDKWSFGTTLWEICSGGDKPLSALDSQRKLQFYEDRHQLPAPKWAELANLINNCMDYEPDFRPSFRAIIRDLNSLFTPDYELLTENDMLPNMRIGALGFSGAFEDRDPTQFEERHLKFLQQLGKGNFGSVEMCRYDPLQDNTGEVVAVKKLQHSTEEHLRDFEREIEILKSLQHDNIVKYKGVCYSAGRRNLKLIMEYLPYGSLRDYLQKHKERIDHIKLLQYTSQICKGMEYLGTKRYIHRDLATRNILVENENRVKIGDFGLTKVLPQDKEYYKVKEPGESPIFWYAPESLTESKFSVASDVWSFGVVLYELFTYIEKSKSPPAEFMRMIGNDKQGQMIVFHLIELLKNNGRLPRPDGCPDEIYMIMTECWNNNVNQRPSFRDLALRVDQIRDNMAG
In short: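 Tet-off BaF3 cells carrying a TEL (nt 1-487)–JAK2 kinase-domain fusion, grown factor-independently in DMEM with 10% Tet-approved FBS without WEHI 3B medium. Compounds were diluted to 20 μM in screening plates, and cells (50,000–200,000 cell/mL at 1.1×) were incubated 40 hr at 37 °C, 5% CO2. Alamar Blue was then added for 4-6 hours; read at 544 nm.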

[4] = tested on: BaF3 wild-type cells; test: Cellular screening, BaF3 wild-type cells, Alamar Blue; type: cell-based; conditions: Mus musculus, 40 hr, read-out: BAF3wt IC50_nM
In short: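 Cells were cultured in DMEM with 10% FCS and 10% WEHI 3B conditioned medium, and suspensions were prepared at 1.1× final (50,000–200,000 cells/mL). Compounds from 20 μM dilution plates were added at 10× final and incubated for 40 hr at 37° C, 5% CO2. Alamar Blue was then added for 4–6 hours and read at 544 nm.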

[5] = tested on: CTLL2; test: Cellular screening, CTLL2 cells, Alamar Blue; type: cell-based; conditions: Mus musculus, CTLL-2, read-out: CTLL2 IC50_nM
In short: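 CTLL2 cells in late log phase incubated with compound for 40 hr at 37° C, 5% CO2. Viability then read at 544 nm after a further 4-6 hours with Alamar Blue.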

T1 sequence (O60674 849-1124 limits assumed): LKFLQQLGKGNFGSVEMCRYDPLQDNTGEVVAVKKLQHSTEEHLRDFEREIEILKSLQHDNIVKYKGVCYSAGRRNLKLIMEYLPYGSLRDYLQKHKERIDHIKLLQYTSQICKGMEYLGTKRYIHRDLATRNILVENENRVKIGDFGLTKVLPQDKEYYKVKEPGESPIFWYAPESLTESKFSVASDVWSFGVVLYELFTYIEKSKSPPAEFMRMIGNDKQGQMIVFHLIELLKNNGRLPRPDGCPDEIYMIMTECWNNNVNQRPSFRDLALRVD

Row | SMILES | IC50 [1] | IC50 [2] | GI50 [3] | IC50 [4] | IC50 [5]
1 | CC#CC(=O)Nc1ccc(Sc2nc(Nc3ccc(N4CCOCC4)cc3)ncc2C)cc1 [Compound 125, N-(4-(5-methyl-2-(4-morpholinophenylao)pyrimidin-4-ylthio)phenyl)but-2-ynamide] | > 1 µM | < 0.1 µM | < 20 µM | > 20 µM | < 5 µM
2 | C=CC(=O)Nc1ccc(Sc2nc(Nc3ccc(N4CCOCC4)cc3)ncc2-c2ccccc2)cc1 [Compound 307, N-(4-(2-(4-morpholinophenylao)-5-phenylpyrimidin-4-ylthio)phenyl)acrylamide] | > 1 µM | < 0.1 µM | > 20 µM | > 20 µM | > 20 µM
3 | C=CC(=O)Nc1ccc(Sc2nc(Nc3cccc(O)c3)ncc2C)cc1 [Compound 281, N-(4-(2-(3-hydroxyphenylao)-5-methylpyrimidin-4-ylthio)phenyl)acrylamide] | > 1 µM | < 0.1 µM | < 20 µM | < 20 µM | < 1 µM
4 | C=CC(=O)Nc1ccc(Sc2ccnc(Nc3ccccc3)n2)cc1 [Compound 350, N-(4-(2-(phenylao)pyrimidin-4-ylthio)phenyl)acrylamide] | > 1 µM | < 0.1 µM | < 20 µM | > 20 µM | < 20 µM
5 | C=CC(=O)Nc1ccc(Sc2ccnc(Nc3cccc([N+](=O)[O-])c3)n2)cc1 [Compound 361, N-(4-(2-(3-nitrophenylao)pyrimidin-4-ylthio)phenyl)acrylamide] | > 1 µM | < 0.1 µM | < 5 µM | > 20 µM | > 20 µM
6 | Cc1cnc(Nc2ccc(N3CCOCC3)cc2)nc1Sc1ccc(N)cc1 [Compound 126, 4-(4-aophenylthio)-5-methyl-N-(4-morpholinophenyl)pyrimidin-2-ae] | < 0.5 µM | < 0.1 µM | < 5 µM | > 20 µM | < 5 µM
7 | C=CC(=O)Nc1ccc(Sc2ccnc(Nc3ccc(OC)c(O)c3)n2)cc1 [Compound 97] | > 1 µM | < 0.1 µM | < 5 µM | < 20 µM | < 1 µM
8 | C=CC(=O)Nc1ccc(Sc2ccnc(Nc3ccc4c(c3)OCO4)n2)cc1 [Compound 393, N-(4-(2-(benzo[d][1,3]dioxol-5-ylao)pyrimidin-4-ylthio)phenyl)acrylamide] | > 1 µM | < 0.1 µM | < 20 µM | > 20 µM | < 5 µM
9 | C=CC(=O)Nc1ccc(Sc2ccnc(Nc3cccc(OC)c3)n2)cc1 [Compound 105, N-(4-(2-(3-methoxyphenylao)pyrimidin-4-ylthio)phenyl)acrylamide] | > 1 µM | < 0.1 µM | < 20 µM | > 20 µM | < 20 µM
10 | Cc1cnc(Nc2ccc(N3CCOCC3)cc2)nc1Sc1ccc2c(c1)CCCN2 [Compound 166, 5-methyl-N-(4-morpholinophenyl)-4-(1,2,3,4-tetrahydroquinolin-6-ylthio)pyrimidin-2-ae] | > 1 µM | < 0.5 µM | < 5 µM | < 20 µM | < 20 µM
11 | C=CC(=O)Nc1ccc(Sc2nc(Nc3ccc(N4CCC(C(=O)OCC)CC4)cc3)ncc2C)cc1 [Compound 292, ethyl 1-(4-(4-(4-acrylamidophenylthio)-5-methylpyrimidin-2-ylao)phenyl)piperidine-4-carboxylate] | > 1 µM | < 0.1 µM | > 20 µM | > 20 µM | < 5 µM
12 | Cc1cnc(Nc2ccc(N3CCOCC3)cc2)nc1Sc1ccc(NC(=O)CCC(=O)O)cc1 [Compound 383, 4-(4-(5-methyl-2-(4-morpholinophenylao)pyrimidin-4-ylthio)phenylao)-4-oxobutanoic acid] | < 0.5 µM | < 0.1 µM | < 20 µM | < 20 µM | < 20 µM
13 | CCC(=O)Nc1ccc(Sc2nc(Nc3ccc(N4CCOCC4)cc3)ncc2Cl)cc1 [Compound 347, N-(4-(5-chloro-2-(4-morpholinophenylao)pyrimidin-4-ylthio)phenyl)propionamide] | > 1 µM | < 0.1 µM | > 20 µM | > 20 µM | < 5 µM
14 | CNC(=O)CCC(=O)Nc1ccc(Sc2nc(Nc3ccc(N4CCOCC4)cc3)ncc2C)cc1 [Compound 386, N1-methyl-N4-(4-(5-methyl-2-(4-morpholinophenylao)pyrimidin-4-ylthio)phenyl)succinamide] | > 1 µM | < 0.5 µM | > 20 µM | > 20 µM | > 20 µM
15 | Cc1cnc(Nc2ccc(N3CCOCC3)cc2)nc1Sc1ccc(N2C(=O)CCC2=O)cc1 [Compound 384, 1-(4-(5-methyl-2-(4-morpholinophenylao)pyrimidin-4-ylthio)phenyl)pyrrolidine-2,5-dione] | < 0.5 µM | < 0.1 µM | > 20 µM | > 20 µM | > 20 µM
16 | C=CC(=O)Nc1ccc(Sc2ccnc(Nc3ccc(S(N)(=O)=O)cc3)n2)cc1 [Compound 352, N-(4-(2-(4-sulfamoylphenylao)pyrimidin-4-ylthio)phenyl)acrylamide] | > 1 µM | < 0.1 µM | < 20 µM | > 20 µM | < 20 µM
17 | Cc1cnc(Nc2ccc(N3CCOCC3)cc2)nc1Sc1ccc(N2C(=O)C=CC2=O)cc1 [Compound 390, 1-(4-(5-methyl-2-(4-morpholinophenylao)pyrimidin-4-ylthio)phenyl)-1H-pyrrole-2,5-dione] | < 0.5 µM | < 0.1 µM | < 5 µM | < 5 µM | < 5 µM
18 | C=CC(=O)Nc1ccc(Sc2nc(Nc3ccc(N4CCOCC4)cc3)ncc2C)c(Cl)c1C [Compound 171, N-(3-chloro-2-methyl-4-(5-methyl-2-(4-morpholinophenylao)pyrimidin-4-ylthio)phenyl)acrylamide] | > 1 µM | < 0.1 µM | > 20 µM | > 20 µM | < 20 µM
19 | O=C(/C=C/Cl)Nc1ccc(Sc2ccnc(Nc3ccc(N4CCOCC4)cc3)n2)cc1 [Compound 342, (E)-3-chloro-N-(4-(2-(4-morpholinophenylao)pyrimidin-4-ylthio)phenyl)acrylamide] | > 1 µM | < 0.1 µM | > 20 µM | > 20 µM | < 20 µM
20 | C=CC(=O)Nc1cccc(Sc2ccnc(Nc3ccc(OC)cc3)n2)c1 [Compound 120, N-(3-(2-(4-methoxyphenylao)pyrimidin-4-ylthio)phenyl)acrylamide] | > 1 µM | < 0.1 µM | < 20 µM | > 20 µM | < 5 µM
21 | C=CC(=O)Nc1ccc(Sc2ccnc(Nc3ccc(N4CCS(=O)(=O)CC4)cc3)n2)cc1 [Compound 99, N-{4-[(2-{[4-(1,1-dioxo-1λ^6,4-thiomorpholin-4-yl)phenyl]ao}pyrimidin-4-yl)sulfanyl]phenyl}prop-2-enamide] | > 1 µM | < 0.1 µM | > 20 µM | – | –
22 | C=CC(=O)Nc1ccc(Sc2nc(Nc3ccccc3O)ncc2C)cc1 [Compound 287, N-(4-(2-(2-hydroxyphenylao)-5-methylpyrimidin-4-ylthio)phenyl)acrylamide] | > 1 µM | < 0.1 µM | > 20 µM | – | –
23 | C=CC(=O)Nc1ccc(Sc2ccnc(Nc3ccc(C(=O)OC)cc3)n2)cc1 [Compound 357, methyl 4-(4-(4-acrylamidophenylthio)pyrimidin-2-ylao)benzoate] | > 1 µM | < 0.1 µM | < 5 µM | – | –
24 | COc1cc(Nc2nccc(Sc3ccc(NCC#N)cc3)n2)cc(OC)c1OC [Compound 52, 2-(4-(2-(3,4,5-trimethoxyphenylao)pyrimidin-4-ylthio)phenylao)acetonitrile] | > 1 µM | – | < 5 µM | – | –
25 | CC(=O)Nc1ccc(Sc2nc(Nc3ccc(N4CCOCC4)cc3)ncc2C)cc1 [Compound 135, N-(4-(5-methyl-2-(4-morpholinophenylao)pyrimidin-4-ylthio)phenyl)acetamide] | > 1 µM | < 0.5 µM | < 20 µM | – | –
26 | C=CC(=O)Nc1ccc(Sc2ccnc(Nc3cccc(Cl)c3)n2)cc1 [Compound 348, N-(4-(2-(3-chlorophenylao)pyrimidin-4-ylthio)phenyl)acrylamide] | > 1 µM | < 0.1 µM | < 5 µM | – | –
